# Reference: patent US20220281848A1, “PYRAZOLE-SUBSTITUTED PYRROLIDINONES AS HERBICIDES” (FMC Corporation, priority 2019, published 2022)
# Experiments:
# Format in all cases: in vivo
# wheat = experiment: Test D pre-emergence, wheat seed treated with a herbicide safener; settings: 100=total damage, 0=no damage
# Summary of the method: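 Damage was rated visually from 0 (none) to 100 (total), at 20 DAA for pre-emergence and 15 d for post-emergence. Plants grew from safener-treated seed in a glasshouse at 24/18° C. or 20/16° C. day/night, 65% humidity, watered twice daily.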
# [1] = system: redroot pigweed (Amaranthus retroflexus, AMARE); experiment: Test A pre-emergence, redroot pigweed; settings: after 13 d
# Summary of the method: (§1)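 After sowing in pots and a single day of glasshouse cultivation, the soil was treated with an aqueous spray of the compound (acetone/water 50:50, 0.5% Tween 20) giving 15.625, 62.5 or 250 g/ha. Evaluation after 13 d used a scale where 0 meant no damage and 100 total damage.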
# plants = experiment: Test D post-emergence, other plants of Tables D2 and D4; settings: for damage to plant (100=total damage to plant; 0=no damage to plant), ABUTH / damage to plant (100=total damage to plant; 0=no damage to plant), AMARE / damage to plant (100=total damage to plant; 0=no damage to plant), BIDPI / damage to plant (100=total damage to plant; 0=no damage to plant), BRAPL / damage to plant (100=total damage to plant; 0=no damage to plant), CYPES / damage to plant (100=total damage to plant; 0=no damage to plant), DIGSA / damage to plant (100=total damage to plant; 0=no damage to plant), ECHCG / damage to plant (100=total damage to plant; 0=no damage to plant), ELEIN / damage to plant (100=total damage to plant; 0=no damage to plant), EPHHL / damage to plant (100=total damage to plant; 0=no damage to plant), GLXMA / damage to plant (100=total damage to plant; 0=no damage to plant), IPOHE / damage to plant (100=total damage to plant; 0=no damage to plant), ORYSA / damage to plant (100=total damage to plant; 0=no damage to plant), PANMI / damage to plant (100=total damage to plant; 0=no damage to plant), SETFA / damage to plant (100=total damage to plant; 0=no damage to plant), SORVU: post-emergence
# Summary of the method: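 Seeds treated with herbicide safener; sown in soil; glasshouse, 16 h light, 65% humidity. Sprayed day 1 (pre) or ~day 12 (post). Spray in 0.2% v/v adjuvant. Scored 0–100 damage: 20 DAA pre, 15 d post.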
# [2] = system: velvetleaf (Abutilon theophrasti, ABUTH); experiment: Test A pre-emergence, velvetleaf; settings: after 13 d
# Summary of the method: as §1
# [3] = "Cereals" Postemergent, Rates 130, evaluated after 15 d
# [4] = "Cereals" Postemergent, Rates 250, evaluated after 15 d
# [5] = "Cereals" Postemergent, Rates 500, evaluated after 15 d
structure (smiles),measurement,setting,value
COc1c(F)cccc1NC(=O)C1C(=O)N(C)CC1c1cc(C(F)(F)F)n(C)n1 (racemic) [Compound 18],"damage to plant, TRZAW","wheat; rate 15, 20 DAA",0
same,"damage to plant, TRZAW","wheat; rate 30, 20 DAA",0
same,"damage to plant, TRZAW","wheat; rate 60, 20 DAA",0
same,"damage to plant, TRZAW","wheat; rate 130, 20 DAA",0
same,"damage to plant, TRZAW","wheat; rate 250, 20 DAA",20
same,"damage to plant, TRZAW","wheat; rate 500, 20 DAA",30
same,damage to plant (100=total damage; 0=no damage) AMARE,[1]; Pre-Emergence at 15.625 g/ha,0
same,damage to plant (100=total damage; 0=no damage) AMARE,[1]; Pre-Emergence at 62.5 g/ha,0
same,damage to plant (100=total damage; 0=no damage) AMARE,[1]; Pre-Emergence at 250 g/ha,0
same,ALOMY damage rating (100=total damage to plant; 0=no damage to plant),plants; [3],10
same,ALOMY damage rating (100=total damage to plant; 0=no damage to plant),plants; [4],30
same,ALOMY damage rating (100=total damage to plant; 0=no damage to plant),plants; [5],40
same,AVEFA damage rating (100=total damage to plant; 0=no damage to plant),plants; [3],0
same,AVEFA damage rating (100=total damage to plant; 0=no damage to plant),plants; [4],20
same,AVEFA damage rating (100=total damage to plant; 0=no damage to plant),plants; [5],40
same,BEAVA damage rating (100=total damage to plant; 0=no damage to plant),plants; [3],0
same,BEAVA damage rating (100=total damage to plant; 0=no damage to plant),plants; [4],0
same,BEAVA damage rating (100=total damage to plant; 0=no damage to plant),plants; [5],0
same,BROTE damage rating (100=total damage to plant; 0=no damage to plant),plants; [3],0
same,BROTE damage rating (100=total damage to plant; 0=no damage to plant),plants; [4],0
same,BROTE damage rating (100=total damage to plant; 0=no damage to plant),plants; [5],0
same,BRSNN damage rating (100=total damage to plant; 0=no damage to plant),plants; [3],10
same,BRSNN damage rating (100=total damage to plant; 0=no damage to plant),plants; [4],10
same,BRSNN damage rating (100=total damage to plant; 0=no damage to plant),plants; [5],20
same,CHEAL damage rating (100=total damage to plant; 0=no damage to plant),plants; [3],0
same,CHEAL damage rating (100=total damage to plant; 0=no damage to plant),plants; [4],0
same,CHEAL damage rating (100=total damage to plant; 0=no damage to plant),plants; [5],20
same,GALAP damage rating (100=total damage to plant; 0=no damage to plant),plants; [3],0
same,GALAP damage rating (100=total damage to plant; 0=no damage to plant),plants; [4],0
same,GALAP damage rating (100=total damage to plant; 0=no damage to plant),plants; [5],40
same,HORVW damage rating (100=total damage to plant; 0=no damage to plant),plants; [3],0
same,HORVW damage rating (100=total damage to plant; 0=no damage to plant),plants; [4],30
same,HORVW damage rating (100=total damage to plant; 0=no damage to plant),plants; [5],50
same,KCHSC damage rating (100=total damage to plant; 0=no damage to plant),plants; [3],0
same,KCHSC damage rating (100=total damage to plant; 0=no damage to plant),plants; [4],0
same,KCHSC damage rating (100=total damage to plant; 0=no damage to plant),plants; [5],0
same,LOLPE damage rating (100=total damage to plant; 0=no damage to plant),plants; [3],0
same,LOLPE damage rating (100=total damage to plant; 0=no damage to plant),plants; [4],0
same,LOLPE damage rating (100=total damage to plant; 0=no damage to plant),plants; [5],10
same,POAAN damage rating (100=total damage to plant; 0=no damage to plant),plants; [3],0
same,POAAN damage rating (100=total damage to plant; 0=no damage to plant),plants; [4],50
same,POAAN damage rating (100=total damage to plant; 0=no damage to plant),plants; [5],70
same,POLCO damage rating (100=total damage to plant; 0=no damage to plant),plants; [3],0
same,POLCO damage rating (100=total damage to plant; 0=no damage to plant),plants; [4],0
same,POLCO damage rating (100=total damage to plant; 0=no damage to plant),plants; [5],0
same,SINAR damage rating (100=total damage to plant; 0=no damage to plant),"plants; SINAR, ""Cereals"" Postemergent, Rates 500, evaluated after 15 d",40
same,STEME damage rating (100=total damage to plant; 0=no damage to plant),plants; [3],0
same,STEME damage rating (100=total damage to plant; 0=no damage to plant),plants; [4],0
same,STEME damage rating (100=total damage to plant; 0=no damage to plant),plants; [5],20
same,VERPE damage rating (100=total damage to plant; 0=no damage to plant),plants; [3],0
same,VERPE damage rating (100=total damage to plant; 0=no damage to plant),plants; [4],0
same,VERPE damage rating (100=total damage to plant; 0=no damage to plant),plants; [5],40
same,"damage to plant (100=total damage to plant; 0=no damage to plant), ABUTH","plants; rate 130, evaluated after 15 d",0
same,"damage to plant (100=total damage to plant; 0=no damage to plant), ABUTH","plants; rate 250, evaluated after 15 d",0
same,"damage to plant (100=total damage to plant; 0=no damage to plant), ABUTH","plants; rate 500, evaluated after 15 d",30
same,"damage to plant (100=total damage to plant; 0=no damage to plant), AMARE","plants; rate 130, evaluated after 15 d",0
same,"damage to plant (100=total damage to plant; 0=no damage to plant), AMARE","plants; rate 250, evaluated after 15 d",10
same,"damage to plant (100=total damage to plant; 0=no damage to plant), AMARE","plants; rate 500, evaluated after 15 d",20
same,"damage to plant (100=total damage to plant; 0=no damage to plant), BIDPI","plants; rate 130, evaluated after 15 d",0
same,"damage to plant (100=total damage to plant; 0=no damage to plant), BIDPI","plants; rate 250, evaluated after 15 d",0
same,"damage to plant (100=total damage to plant; 0=no damage to plant), BIDPI","plants; rate 500, evaluated after 15 d",20
same,"damage to plant (100=total damage to plant; 0=no damage to plant), BRAPL","plants; rate 130, evaluated after 15 d",60
same,"damage to plant (100=total damage to plant; 0=no damage to plant), BRAPL","plants; rate 250, evaluated after 15 d",70
same,"damage to plant (100=total damage to plant; 0=no damage to plant), BRAPL","plants; rate 500, evaluated after 15 d",80
same,"damage to plant (100=total damage to plant; 0=no damage to plant), CYPES","plants; rate 130, evaluated after 15 d",0
same,"damage to plant (100=total damage to plant; 0=no damage to plant), CYPES","plants; rate 250, evaluated after 15 d",0
same,"damage to plant (100=total damage to plant; 0=no damage to plant), CYPES","plants; rate 500, evaluated after 15 d",0
same,"damage to plant (100=total damage to plant; 0=no damage to plant), DIGSA","plants; rate 130, evaluated after 15 d",30
same,"damage to plant (100=total damage to plant; 0=no damage to plant), DIGSA","plants; rate 250, evaluated after 15 d",60
same,"damage to plant (100=total damage to plant; 0=no damage to plant), DIGSA","plants; rate 500, evaluated after 15 d",70
same,"damage to plant (100=total damage to plant; 0=no damage to plant), ECHCG","plants; rate 130, evaluated after 15 d",0
same,"damage to plant (100=total damage to plant; 0=no damage to plant), ECHCG","plants; rate 250, evaluated after 15 d",60
same,"damage to plant (100=total damage to plant; 0=no damage to plant), ECHCG","plants; rate 500, evaluated after 15 d",70
same,"damage to plant (100=total damage to plant; 0=no damage to plant), ELEIN","plants; rate 130, evaluated after 15 d",0
same,"damage to plant (100=total damage to plant; 0=no damage to plant), ELEIN","plants; rate 250, evaluated after 15 d",0
same,"damage to plant (100=total damage to plant; 0=no damage to plant), ELEIN","plants; rate 500, evaluated after 15 d",0
same,"damage to plant (100=total damage to plant; 0=no damage to plant), EPHHL","plants; rate 130, evaluated after 15 d",0
same,"damage to plant (100=total damage to plant; 0=no damage to plant), EPHHL","plants; rate 250, evaluated after 15 d",10
same,"damage to plant (100=total damage to plant; 0=no damage to plant), EPHHL","plants; rate 500, evaluated after 15 d",20
same,"damage to plant (100=total damage to plant; 0=no damage to plant), GLXMA","plants; rate 130, evaluated after 15 d",0
same,"damage to plant (100=total damage to plant; 0=no damage to plant), GLXMA","plants; rate 250, evaluated after 15 d",0
same,"damage to plant (100=total damage to plant; 0=no damage to plant), GLXMA","plants; rate 500, evaluated after 15 d",0
same,"damage to plant (100=total damage to plant; 0=no damage to plant), IPOHE","plants; rate 130, evaluated after 15 d",0
same,"damage to plant (100=total damage to plant; 0=no damage to plant), IPOHE","plants; rate 250, evaluated after 15 d",20
same,"damage to plant (100=total damage to plant; 0=no damage to plant), IPOHE","plants; rate 500, evaluated after 15 d",30
same,"damage to plant (100=total damage to plant; 0=no damage to plant), ORYSA","plants; rate 130, evaluated after 15 d",0
same,"damage to plant (100=total damage to plant; 0=no damage to plant), ORYSA","plants; rate 250, evaluated after 15 d",0
same,"damage to plant (100=total damage to plant; 0=no damage to plant), ORYSA","plants; rate 500, evaluated after 15 d",0
same,"damage to plant (100=total damage to plant; 0=no damage to plant), PANMI","plants; rate 130, evaluated after 15 d",0
same,"damage to plant (100=total damage to plant; 0=no damage to plant), PANMI","plants; rate 250, evaluated after 15 d",10
same,"damage to plant (100=total damage to plant; 0=no damage to plant), PANMI","plants; rate 500, evaluated after 15 d",10
same,"damage to plant (100=total damage to plant; 0=no damage to plant), SETFA","plants; rate 130, evaluated after 15 d",0
same,"damage to plant (100=total damage to plant; 0=no damage to plant), SETFA","plants; rate 250, evaluated after 15 d",30
same,"damage to plant (100=total damage to plant; 0=no damage to plant), SETFA","plants; rate 500, evaluated after 15 d",70
same,"damage to plant (100=total damage to plant; 0=no damage to plant), SORVU","plants; rate 130, evaluated after 15 d",0
same,"damage to plant (100=total damage to plant; 0=no damage to plant), SORVU","plants; rate 250, evaluated after 15 d",0
same,"damage to plant (100=total damage to plant; 0=no damage to plant), SORVU","plants; rate 500, evaluated after 15 d",0
same,damage to plant (100=total damage; 0=no damage) ABUTH,[2]; Pre-Emergence at 15.625 g/ha,0
same,damage to plant (100=total damage; 0=no damage) ABUTH,[2]; Pre-Emergence at 62.5 g/ha,0
same,damage to plant (100=total damage; 0=no damage) ABUTH,[2]; Pre-Emergence at 250 g/ha,0
